± gives the standard deviation of the averaged measurements.
Experiments:
Experiment in all cases: normalised number of viable cells after treatment (fraction of control); higher = more viable cells (less drug effect)
P6 Relapse = system: P6 Relapse (T-ALL xenograft cells from relapse)
Procedure: (§1)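 T-ALL PDX-derived cells (initial diagnosis or relapse samples of individual patients) co-cultured on hTERT-immortalized bone marrow MSCs in 384-well plates were treated with Cytarabine, Venetoclax, S-63845, A1331852 or FX1 (0.1 nM to 10,000 nM) for 72 h.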

P8 Initial = system: P8 Initial (T-ALL xenograft cells from diagnosis)
Procedure: as §1

P12 Relapse = system: P12 Relapse (T-ALL xenograft cells from relapse)
Procedure: as §1

P12 Initial = system: P12 Initial (T-ALL xenograft cells from diagnosis)
Procedure: as §1

P6 Initial = system: P6 Initial (T-ALL xenograft cells from diagnosis)
Procedure: as §1

P1 Initial = system: P1 Initial (T-ALL xenograft cells from diagnosis)
Procedure: as §1

P1 Relapse = system: P1 Relapse (T-ALL xenograft cells from relapse)
Procedure: as §1

P10 Initial = system: P10 Initial (T-ALL xenograft cells from diagnosis)
Procedure: as §1

P2 Initial = system: P2 Initial (T-ALL xenograft cells from diagnosis)
Procedure: as §1

P8 Relapse = system: P8 Relapse (T-ALL xenograft cells from relapse)
Procedure: as §1

P10 Relapse = system: P10 Relapse (T-ALL xenograft cells from relapse)
Procedure: as §1

P3 Relapse = system: P3 Relapse (T-ALL xenograft cells from relapse)
Procedure: as §1

P3 Initial = system: P3 Initial (T-ALL xenograft cells from diagnosis)
Procedure: as §1

P2 Relapse = system: P2 Relapse (T-ALL xenograft cells from relapse)
Procedure: as §1

CC1(C)CCC(CN2CCN(c3ccc(C(=O)NS(=O)(=O)c4ccc(NCC5CCOCC5)c([N+](=O)[O-])c4)c(Oc4cnc5[nH]ccc5c4)c3)CC2)=C(c2ccc(Cl)cc2)C1 [Venetoclax]
Details | normalised number of viable cells
P1 Initial, 0.125 nM | 1 ± 0.17
P1 Initial, 1 nM | 0.841 ± 0.079
P1 Initial, 12.5 nM | 0.423 ± 0.026
P1 Initial, 100 nM | 0.345 ± 0.059
P1 Initial, 1250 nM | 0.259 ± 0.057
P1 Initial, 10000 nM | 0.0865 ± 0.0064
P1 Relapse, 0.125 nM | 1.02 ± 0.065
P1 Relapse, 1 nM | 0.911 ± 0.3
P1 Relapse, 12.5 nM | 0.504 ± 0.15
P1 Relapse, 100 nM | 0.781 ± 0.25
P1 Relapse, 1250 nM | 0.352 ± 0.061
P1 Relapse, 10000 nM | 0.694 ± 0.0028
P2 Initial, 0.998752 nM | 1.58 ± 0.44
P2 Initial, 9.98752 nM | 1.09 ± 0.15
P2 Initial, 99.8752 nM | 0.725 ± 0.17
P2 Initial, 998.752 nM | 0.56 ± 0.18
P2 Initial, 9987.52 nM | 0.514 ± 0.33
P2 Relapse, 0.998752 nM | 1.16 ± 0.069
P2 Relapse, 9.98752 nM | 1.37 ± 0.31
P2 Relapse, 99.8752 nM | 1.19 ± 0.13
P2 Relapse, 998.752 nM | 0.933 ± 0.0099
P2 Relapse, 9987.52 nM | 0.412 ± 0.044
P3 Initial, 0.998752 nM | 0.948 ± 0.084
P3 Initial, 9.98752 nM | 0.925 ± 0.015
P3 Initial, 99.8752 nM | 0.814 ± 0.023
P3 Initial, 998.752 nM | 0.821 ± 0.04
P3 Initial, 9987.52 nM | 0.139 ± 0.026
P3 Relapse, 0.998752 nM | 1.18 ± 0.17
P3 Relapse, 9.98752 nM | 1.15 ± 0.054
P3 Relapse, 99.8752 nM | 1.104 ± 0.0014
P3 Relapse, 998.752 nM | 0.922 ± 0.022
P3 Relapse, 9987.52 nM | 0.072 ± 0.03
P6 Initial, 0.998752 nM | 1.17 ± 0.061
P6 Initial, 9.98752 nM | 0.743 ± 0.27
P6 Initial, 99.8752 nM | 0.5415 ± 0.0021
P6 Initial, 998.752 nM | 0.355 ± 0.086
P6 Initial, 9987.52 nM | 0.269 ± 0.0042
P6 Relapse, 0.998752 nM | 1.31 ± 0.23
P6 Relapse, 9.98752 nM | 1.12 ± 0.059
P6 Relapse, 99.8752 nM | 0.554 ± 0.11
P6 Relapse, 998.752 nM | 0.584 ± 0.025
P6 Relapse, 9987.52 nM | 0.169 ± 0.036
P8 Initial, 0.998752 nM | 2.58 ± 0.14
P8 Initial, 9.98752 nM | 2.56 ± 0.32
P8 Initial, 99.8752 nM | 2.09 ± 0.27
P8 Initial, 998.752 nM | 1.89 ± 0.035
P8 Initial, 9987.52 nM | 2.3 ± 0.53
P8 Relapse, 0.998752 nM | 1.21 ± 0.084
P8 Relapse, 9.98752 nM | 1.24
P8 Relapse, 99.8752 nM | 1.02 ± 0.13
P8 Relapse, 998.752 nM | 0.744 ± 0.021
P8 Relapse, 9987.52 nM | 0.732 ± 0.11
P10 Initial, 0.998752 nM | 1.39 ± 0.075
P10 Initial, 9.98752 nM | 1.41 ± 0.013
P10 Initial, 99.8752 nM | 0.954 ± 0.054
P10 Initial, 998.752 nM | 0.665 ± 0.087
P10 Initial, 9987.52 nM | 0.21 ± 0.036
P10 Relapse, 0.998752 nM | 0.866 ± 0.054
P10 Relapse, 9.98752 nM | 1.17
P10 Relapse, 99.8752 nM | 0.717 ± 0.088
P10 Relapse, 998.752 nM | 0.313 ± 0.014
P10 Relapse, 9987.52 nM | 0.13 ± 0.0085
P12 Initial, 0.998752 nM | 1.15 ± 0.017
P12 Initial, 9.98752 nM | 1.21
P12 Initial, 99.8752 nM | 0.923 ± 0.12
P12 Initial, 998.752 nM | 0.978 ± 0.099
P12 Initial, 9987.52 nM | 0.0715 ± 0.005
P12 Relapse, 0.998752 nM | 5.7 ± 0.48
P12 Relapse, 9.98752 nM | 4.1
P12 Relapse, 99.8752 nM | 4.2 ± 0.59
P12 Relapse, 998.752 nM | 4.43 ± 0.13
P12 Relapse, 9987.52 nM | 0.845 ± 0.74

Cc1c(-c2ccc(N3CCc4cccc(C(=O)Nc5nc6ccccc6s5)c4C3)nc2C(=O)O)cnn1CC12CC3CC(CC(C3)C1)C2
normalised number of viable cells
Details | 0.125 nM | 0.13 nM | 1 nM | 1.25 nM | 12.5 nM | 31.25 nM | 100 nM | 625 nM | 1250 nM | 10000 nM
P1 Initial | 1.07 ± 0.055 | – | 0.741 ± 0.22 | – | 0.429 ± 0.0092 | – | 0.38 ± 0.054 | – | 0.172 ± 0.015 | 0.0585 ± 0.023
P1 Relapse | – | 1.092 ± 0.0085 | – | 1 ± 0.038 | – | 0.758 ± 0.049 | – | 0.443 ± 0.23 | – | 0.104 ± 0.0035
P2 Initial | – | 0.972 ± 0.078 | – | 0.785 ± 0.0028 | – | 0.5015 ± 0.0021 | – | 0.407 ± 0.047 | – | 0.2125 ± 0.0021
P2 Relapse | – | 0.839 ± 0.042 | – | 0.588 ± 0.016 | – | 0.115 ± 0.0085 | – | 0.0705 ± 0.0035 | – | 0.0555 ± 0.0078
P6 Initial | – | 0.809 ± 0.016 | – | 0.331 ± 0.016 | – | 0.037 ± 0.0042 | – | 0.023 ± 0.0042 | – | 0.0205 ± 0.0021
P6 Relapse | – | 0.953 ± 0.0085 | – | 0.907 ± 0.037 | – | 0.827 ± 0.039 | – | 0.883 ± 0.033 | – | 0.834 ± 0.016
P8 Initial | – | 1.17 ± 0.086 | – | 0.883 ± 0.057 | – | 0.704 ± 0.0071 | – | 0.673 | – | 0.4885 ± 0.0021
P8 Relapse | – | 0.838 ± 0.025 | – | 0.861 ± 0.057 | – | 0.721 ± 0.093 | – | 0.515 ± 0.016 | – | 0.321 ± 0.035
P10 Initial | – | 0.894 ± 0.037 | – | 0.32 ± 0.039 | – | 0.163 ± 0.055 | – | 0.0735 ± 0.033 | – | 0.031 ± 0.0042
P10 Relapse | – | 0.98 ± 0.052 | – | 0.69 ± 0.037 | – | 0.547 ± 0.048 | – | 0.341 ± 0.02 | – | 0.149 ± 0.042
P12 Initial | – | 0.976 ± 0.26 | – | 0.093 ± 0.0014 | – | 0.151 ± 0.16 | – | 0.084 | – | 0.054 ± 0.0085
P12 Relapse | – | 2.48 ± 0.47 | – | 0.433 ± 0.4 | – | 0.132 ± 0.025 | – | 0.075 | – | 0.0555 ± 0.0078

Source: the supplement of paper PMC12205070
